These results are taken from patent US10023570B2 (Array BioPharma, Inc., priority 2015, dated 2018).

The target in assay [1] is N-terminal GST tagged recombinant human RET cytoplasmic domain (aa 658-end), wild type RET kinase (Homo sapiens (Human), UniProt P07949). In words: RET Enzyme Assay (HTRF KinEASE-TK), wild type RET. Type of assay: biochemical. A general note: TR-FRET usually uses a lanthanide donor and a delayed reading to cut background.
For assay [2], the target named is Kif5b-RET fusion protein in HEK-293 cells (Homo sapiens, UniProt P07949). In words: cell-based. The conditions noted are these: HEK-293 cells expressing Kif5b-RET, phospho-RET(Tyr1062); read-out: KIF5B-RET pTYR1062 Cell IC50.
Assay [3] concerns the target human KDR protein in HEK-293 cells (Homo sapiens (Human), UniProt P35968). In words: KDR Cell Assay (phospho-KDR in HEK-293 cells expressing inducible KDR). It counts as cell-based. The conditions noted are these: pKDR Cell HEK 10% FBS IC50, HEK-293 cells expressing inducible KDR, VEGF stimulated, 10% FBS. An outline of the steps:
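HEK-293 cells with inducible human KDR were treated with compound for 1 h in DMEM (0.25% DMSO final), then lysed. Phospho-KDR was quantified by Meso Scale immunoassay, expressed as percent of control, and IC50 taken where a 4-parameter logistic fit crossed 50 POC.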

Counter-ions that a name gives are not always drawn. Like-named read-outs stand apart in the source and are kept apart here.

Chain of Kif5b-RET fusion protein in HEK-293 cells (P07949 29-1114 limits assumed): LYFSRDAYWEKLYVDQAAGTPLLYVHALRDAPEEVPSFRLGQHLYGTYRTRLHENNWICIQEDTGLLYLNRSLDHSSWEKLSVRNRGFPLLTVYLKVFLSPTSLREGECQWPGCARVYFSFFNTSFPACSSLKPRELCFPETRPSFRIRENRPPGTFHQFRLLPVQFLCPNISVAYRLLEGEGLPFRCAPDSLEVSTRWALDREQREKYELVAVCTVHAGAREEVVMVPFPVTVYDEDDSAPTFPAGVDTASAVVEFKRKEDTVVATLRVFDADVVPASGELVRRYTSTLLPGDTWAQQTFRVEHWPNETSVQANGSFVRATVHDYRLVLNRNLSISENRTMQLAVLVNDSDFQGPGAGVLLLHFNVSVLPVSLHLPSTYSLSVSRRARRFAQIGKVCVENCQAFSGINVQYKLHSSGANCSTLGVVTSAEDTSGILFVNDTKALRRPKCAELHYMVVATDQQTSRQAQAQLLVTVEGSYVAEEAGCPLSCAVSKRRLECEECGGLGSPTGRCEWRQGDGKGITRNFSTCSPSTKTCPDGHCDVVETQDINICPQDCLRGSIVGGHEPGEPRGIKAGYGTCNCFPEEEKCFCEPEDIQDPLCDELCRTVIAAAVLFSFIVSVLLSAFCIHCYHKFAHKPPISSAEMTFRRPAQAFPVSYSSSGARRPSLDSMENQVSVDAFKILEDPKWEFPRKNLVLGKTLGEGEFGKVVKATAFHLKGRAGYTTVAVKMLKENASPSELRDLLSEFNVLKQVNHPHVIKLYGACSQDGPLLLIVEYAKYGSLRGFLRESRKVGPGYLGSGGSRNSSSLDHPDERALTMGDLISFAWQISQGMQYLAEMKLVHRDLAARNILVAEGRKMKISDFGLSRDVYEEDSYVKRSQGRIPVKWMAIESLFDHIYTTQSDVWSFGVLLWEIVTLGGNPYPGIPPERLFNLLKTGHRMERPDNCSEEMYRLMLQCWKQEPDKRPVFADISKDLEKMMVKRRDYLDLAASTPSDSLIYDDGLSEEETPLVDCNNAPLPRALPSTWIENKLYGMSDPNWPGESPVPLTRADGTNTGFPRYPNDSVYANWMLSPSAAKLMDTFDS
Chain of human KDR protein in HEK-293 cells (P35968 20-1356): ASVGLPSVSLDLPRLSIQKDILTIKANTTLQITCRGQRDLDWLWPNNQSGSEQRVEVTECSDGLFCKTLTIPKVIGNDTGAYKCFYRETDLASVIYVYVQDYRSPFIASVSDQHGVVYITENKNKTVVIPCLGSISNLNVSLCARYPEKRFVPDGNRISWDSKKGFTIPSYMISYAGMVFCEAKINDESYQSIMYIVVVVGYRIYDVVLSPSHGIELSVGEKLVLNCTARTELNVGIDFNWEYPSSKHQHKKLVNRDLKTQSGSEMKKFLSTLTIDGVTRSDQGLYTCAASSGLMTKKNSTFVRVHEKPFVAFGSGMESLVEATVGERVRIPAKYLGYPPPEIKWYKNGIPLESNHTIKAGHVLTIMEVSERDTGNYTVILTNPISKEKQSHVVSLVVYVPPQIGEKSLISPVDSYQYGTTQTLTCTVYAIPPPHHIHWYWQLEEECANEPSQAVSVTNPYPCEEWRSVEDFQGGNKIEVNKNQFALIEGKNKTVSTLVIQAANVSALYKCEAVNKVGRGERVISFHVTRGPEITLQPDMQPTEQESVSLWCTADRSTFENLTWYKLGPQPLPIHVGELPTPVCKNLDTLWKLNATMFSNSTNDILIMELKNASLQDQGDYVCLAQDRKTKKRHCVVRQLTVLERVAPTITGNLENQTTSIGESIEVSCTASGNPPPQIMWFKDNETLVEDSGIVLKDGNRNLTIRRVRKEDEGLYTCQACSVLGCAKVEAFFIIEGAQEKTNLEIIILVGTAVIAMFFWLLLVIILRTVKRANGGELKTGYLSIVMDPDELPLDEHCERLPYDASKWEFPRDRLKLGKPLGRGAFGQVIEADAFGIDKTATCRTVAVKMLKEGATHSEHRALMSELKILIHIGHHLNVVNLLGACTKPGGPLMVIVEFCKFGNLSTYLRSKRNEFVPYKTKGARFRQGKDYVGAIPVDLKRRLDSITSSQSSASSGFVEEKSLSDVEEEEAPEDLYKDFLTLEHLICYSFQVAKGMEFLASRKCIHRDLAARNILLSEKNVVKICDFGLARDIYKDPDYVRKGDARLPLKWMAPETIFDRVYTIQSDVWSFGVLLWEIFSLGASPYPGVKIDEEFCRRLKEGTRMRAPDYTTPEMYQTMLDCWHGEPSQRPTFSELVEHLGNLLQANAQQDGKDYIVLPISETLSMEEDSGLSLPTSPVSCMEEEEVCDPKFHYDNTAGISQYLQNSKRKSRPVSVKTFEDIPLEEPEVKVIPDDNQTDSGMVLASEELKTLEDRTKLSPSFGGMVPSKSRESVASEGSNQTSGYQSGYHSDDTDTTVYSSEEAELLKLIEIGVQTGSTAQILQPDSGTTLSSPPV
Chain of N-terminal GST tagged recombinant human RET cytoplasmic domain (aa 658-end), wild type RET kinase (P07949 658-1114): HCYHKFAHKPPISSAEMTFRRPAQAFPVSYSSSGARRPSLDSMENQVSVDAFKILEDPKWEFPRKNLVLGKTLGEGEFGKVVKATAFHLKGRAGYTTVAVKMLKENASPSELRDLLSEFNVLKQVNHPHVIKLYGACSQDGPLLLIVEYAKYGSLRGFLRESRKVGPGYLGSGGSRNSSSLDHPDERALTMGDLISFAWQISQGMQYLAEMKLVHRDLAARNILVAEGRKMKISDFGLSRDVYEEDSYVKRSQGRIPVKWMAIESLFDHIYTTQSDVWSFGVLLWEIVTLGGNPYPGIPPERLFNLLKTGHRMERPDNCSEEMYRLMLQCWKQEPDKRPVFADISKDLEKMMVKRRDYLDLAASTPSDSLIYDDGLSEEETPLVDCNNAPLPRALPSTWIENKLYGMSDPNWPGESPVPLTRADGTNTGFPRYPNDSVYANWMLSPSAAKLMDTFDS

On to `CC(C)OC(=O)NC1CCN(c2ccc(-c3cc(-c4cnn(C)c4)cn4ncc(C#N)c34)cn2)CC1` [Example 188, Isopropyl (1-(5-(3-cyano-6-(1-methyl-1H-pyrazol-4-yl)pyrazolo[1,5-a]pyridin-4-yl)pyridin-2-yl)piperidin-4-yl)carbamate], for which the IC50 came to 16.8 nM in assay [1] (wild type RET, 1 mM ATP); 9.7 nM in assay [2]; 614 nM in assay [3].

Turning to `Cn1cc(-c2cc(-c3ccc(N4CCC(O)CC4)nc3)c3c(C#N)cnn3c2)cn1` [Example 196, 4-(6-(4-hydroxypiperidin-1-yl)pyridin-3-yl)-6-(1-methyl-1H-pyrazol-4-yl)pyrazolo[1,5-a]pyridine-3-carbonitrile], the IC50 in assay [1] (wild type RET, 1 mM ATP) came to 10.9 nM; in assay [2] it was 45.5 nM; in assay [3], 630 nM.

For `CC(C)COC1CCN(c2ccc(-c3cc(-c4cnn(C)c4)cn4ncc(C#N)c34)cn2)CC1` [Example 197, 4-(6-(4-isobutoxypiperidin-1-yl)pyridin-3-yl)-6-(1-methyl-1H-pyrazol-4-yl)pyrazolo[1,5-a]pyridine-3-carbonitrile], the IC50 in assay [1] (wild type RET, 1 mM ATP) amounted to 14 nM; in assay [2], 39.6 nM; in assay [3] it was 1300 nM.

As for `COC1CCN(c2ccc(-c3cc(-c4cnn(C)c4)cn4ncc(C#N)c34)cn2)CC1` [Example 198, 4-(6-(4-methoxypiperidin-1-yl)pyridin-3-yl)-6-(1-methyl-1H-pyrazol-4-yl)pyrazolo[1,5-a]pyridine-3-carbonitrile], the IC50 in assay [1] (wild type RET, 1 mM ATP) was determined as 14.3 nM; in assay [2] it was 25.3 nM; in assay [3] it was 659 nM.

As to `Cn1cc(-c2cc(-c3ccc(N4CCC(C)(NC(=O)OC(C)(C)C)CC4)nc3)c3c(C#N)cnn3c2)cn1` [Example 201, tert-butyl (1-(5-(3-cyano-6-(1-methyl-1H-pyrazol-4-yl)pyrazolo[1,5-a]pyridin-4-yl)pyridin-2-yl)-4-methylpiperidin-4-yl)carbamate], the IC50 in assay [1] (wild type RET, 1 mM ATP) was 10.7 nM; in assay [2], 7.1 nM; in assay [3], 1150 nM.

On to `Cn1cc(-c2cc(-c3ccc(N4CCC(C)(N)CC4)nc3)c3c(C#N)cnn3c2)cn1` [Example 202, 4-(6-(4-amino-4-methylpiperidin-1-yl)pyridin-3-yl)-6-(1-methyl-1H-pyrazol-4-yl)pyrazolo[1,5-a]pyridine-3-carbonitrile dihydrochloride], for which the IC50 in assay [1] worked out at 41.7 nM; in assay [2], 110 nM; in assay [3], 992 nM.

For the compound `CC(C)C(=O)NC1(C)CCN(c2ccc(-c3cc(-c4cnn(C)c4)cn4ncc(C#N)c34)cn2)CC1` [Example 203], the IC50 in assay [1] (wild type RET, 1 mM ATP) amounted to 5.8 nM; in assay [2], 5.2 nM; in assay [3], 560 nM.

With `CC(C)C(=O)N[C@@H]1CCCN(c2ccc(-c3cc(-c4cnn(C)c4)cn4ncc(C#N)c34)cn2)C1` [Example 226, (R)—N-(1-(5-(3-cyano-6-(1-methyl-1H-pyrazol-4-yl)pyrazolo[1,5-a]pyridin-4-yl)pyridin-2-yl)piperidin-3-yl)isobutyramide], the IC50 in assay [1] (wild type RET, 1 mM ATP) is 31.8 nM; in assay [2] it was 57.1 nM; in assay [3], 1170 nM.

On to `C[C@H](NC(=O)C1CCN(c2ccc(-c3cc(-c4cnn(C)c4)cn4ncc(C#N)c34)cn2)CC1)C(F)(F)F` [Example 231, (S)-1-(5-(3-cyano-6-(1-methyl-1H-pyrazol-4-yl)pyrazolo[1,5-a]pyridin-4-yl)pyridin-2-yl)-N-(1,1,1-trifluoropropan-2-yl)piperidine-4-carboxamide], for which the IC50 was determined as 6.9 nM in assay [1] (wild type RET, 1 mM ATP); 5.6 nM in assay [2]; 279 nM in assay [3].

On to `COCC(C)NC(=O)C1CCN(c2ccc(-c3cc(-c4cnn(C)c4)cn4ncc(C#N)c34)cn2)CC1` (stereo not drawn) [Example 232, 1-(5-(3-cyano-6-(1-methyl-1H-pyrazol-4-yl)pyrazolo[1,5-a]pyridin-4-yl)pyridin-2-yl)-N-(1-methoxypropan-2-yl)piperidine-4-carboxamide], for which the IC50 in assay [1] (wild type RET, 1 mM ATP) came to 12.1 nM; in assay [2], 24.4 nM; in assay [3], 812 nM.

For `C[C@@H](NC(=O)C1CCN(c2ccc(-c3cc(-c4cnn(C)c4)cn4ncc(C#N)c34)cn2)CC1)C(F)(F)F` [Example 233, (R)-1-(5-(3-cyano-6-(1-methyl-1H-pyrazol-4-yl)pyrazolo[1,5-a]pyridin-4-yl)pyridin-2-yl)-N-(1,1,1-trifluoropropan-2-yl)piperidine-4-carboxamide], the half-inhibitory concentration (IC50) in assay [1] (wild type RET, 1 mM ATP) was found to be 13.6 nM; in assay [2], 27.3 nM; in assay [3], 511 nM.

Regarding `CC(C)OCCNC(=O)C1CCN(c2ccc(-c3cc(-c4cnn(C)c4)cn4ncc(C#N)c34)cn2)CC1` [Example 234, 1-(5-(3-cyano-6-(1-methyl-1H-pyrazol-4-yl)pyrazolo[1,5-a]pyridin-4-yl)pyridin-2-yl)-N-(2-isopropoxyethyl) piperidine-4-carboxamide], the concentration for half-maximal inhibition (IC50) is 25.6 nM in assay [1] (wild type RET, 1 mM ATP); 31.9 nM in assay [2]; 1210 nM in assay [3].

As for `COC(CNC(=O)C1CCN(c2ccc(-c3cc(-c4cnn(C)c4)cn4ncc(C#N)c34)cn2)CC1)C(F)(F)F` (stereo not drawn) [Example 235, 1-(5-(3-cyano-6-(1-methyl-1H-pyrazol-4-yl)pyrazolo[1,5-a]pyridin-4-yl)pyridin-2-yl)-N-(3,3,3-trifluoro-2-methoxypropyl) piperidine-4-carboxamide], the IC50 is 7.4 nM in assay [1] (wild type RET, 1 mM ATP); 5.1 nM in assay [2]; 1510 nM in assay [3].

For the compound `COC(CNC(=O)C1CCN(c2ccc(-c3cc(-c4cnn(C)c4)cn4ncc(C#N)c34)cn2)CC1)C(C)C` (stereo not drawn) [Example 236, 1-(5-(3-cyano-6-(1-methyl-1H-pyrazol-4-yl)pyrazolo[1,5-a]pyridin-4-yl)pyridin-2-yl)-N-(2-methoxy-3-methylbutyl)piperidine-4-carboxamide], the IC50 came out at 4 nM in assay [1] (wild type RET, 1 mM ATP); 3.2 nM in assay [2]; 477 nM in assay [3].

Consider `CCONC(=O)C1CCN(c2ccc(-c3cc(-c4cnn(C)c4)cn4ncc(C#N)c34)cn2)CC1` [Example 237, 1-(5-(3-cyano-6-(1-methyl-1H-pyrazol-4-yl)pyrazolo[1,5-a]pyridin-4-yl)pyridin-2-yl)-N-ethoxypiperidine-4-carboxamide], for which the IC50 in assay [1] (wild type RET, 1 mM ATP) stood at 6.1 nM; in assay [2], 15.8 nM; in assay [3], 840 nM.

In the case of `COC(C)CNC(=O)C1CCN(c2ccc(-c3cc(-c4cnn(C)c4)cn4ncc(C#N)c34)cn2)CC1` (stereo not drawn) [Example 239, 1-(5-(3-cyano-6-(1-methyl-1H-pyrazol-4-yl)pyrazolo[1,5-a]pyridin-4-yl)pyridin-2-yl)-N-(2-methoxypropyl) piperidine-4-carboxamide], the half-inhibitory concentration (IC50) in assay [1] (wild type RET, 1 mM ATP) stood at 8.7 nM; in assay [2], 5.8 nM; in assay [3] it was 916 nM.

`Cn1cc(-c2cc(-c3ccc(N4CCC(C(=O)NCCC(F)(F)F)CC4)nc3)c3c(C#N)cnn3c2)cn1` [Example 242, 1-(5-(3-cyano-6-(1-methyl-1H-pyrazol-4-yl)pyrazolo[1,5-a]pyridin-4-yl)pyridin-2-yl)-N-(3,3,3-trifluoropropyl)piperidine-4-carboxamide]: the IC50 in assay [1] (wild type RET, 1 mM ATP) was 4.5 nM; in assay [2] it was 6.3 nM; in assay [3] it was 223 nM.

As to `Cn1cc(-c2cc(-c3ccc(N4CCC(C(=O)NCC(F)(F)F)CC4)nc3)c3c(C#N)cnn3c2)cn1` [Example 243, 1-(5-(3-cyano-6-(1-methyl-1H-pyrazol-4-yl)pyrazolo[1,5-a]pyridin-4-yl)pyridin-2-yl)-N-(2,2,2-trifluoroethyl)piperidine-4-carboxamide], the IC50 in assay [1] (wild type RET, 1 mM ATP) is 5.6 nM; in assay [2], 5.4 nM; in assay [3], 103 nM.

`CC(C)CN(C)C(=O)C1CCN(c2ccc(-c3cc(-c4cnn(C)c4)cn4ncc(C#N)c34)cn2)CC1` [Example 244, 1-(5-(3-cyano-6-(1-methyl-1H-pyrazol-4-yl)pyrazolo[1,5-a]pyridin-4-yl)pyridin-2-yl)-N-isobutyl-N-methylpiperidine-4-carboxamide]: the IC50 worked out at 20.9 nM in assay [1] (wild type RET, 1 mM ATP); 69.2 nM in assay [2]; 660 nM in assay [3].

As for `CC(C)NC(=O)C1CCN(c2ccc(-c3cc(-c4cnn(C)c4)cn4ncc(C#N)c34)cn2)CC1` [Example 246, 1-(5-(3-cyano-6-(1-methyl-1H-pyrazol-4-yl)pyrazolo[1,5-a]pyridin-4-yl)pyridin-2-yl)-N-isopropylpiperidine-4-carboxamide], the IC50 in assay [1] (wild type RET, 1 mM ATP) is 12 nM; in assay [2], 13.6 nM; in assay [3], 949 nM.

Regarding `CC(C)NC(=O)CC1CCN(c2ccc(-c3cc(-c4cnn(C)c4)cn4ncc(C#N)c34)cn2)CC1` [Example 249, 2-(1-(5-(3-cyano-6-(1-methyl-1H-pyrazol-4-yl)pyrazolo[1,5-a]pyridin-4-yl)pyridin-2-yl)piperidin-4-yl)-N-isopropylacetamide], the IC50 in assay [1] (wild type RET, 1 mM ATP) was 26.6 nM; in assay [2], 33.5 nM; in assay [3] it was 998 nM.

`Cn1cc(-c2cc(-c3ccc(N4CCC(C)(C(=O)NCCC(F)(F)F)CC4)nc3)c3c(C#N)cnn3c2)cn1` [Example 250, 1-(5-(3-cyano-6-(1-methyl-1H-pyrazol-4-yl)pyrazolo[1,5-a]pyridin-4-yl)pyridin-2-yl)-4-methyl-N-(3,3,3-trifluoropropyl)piperidine-4-carboxamide]: the IC50 in assay [1] (wild type RET, 1 mM ATP) amounted to 7 nM; in assay [2], 6.1 nM; in assay [3], 468 nM.

One may read the IC50 as the point on the concentration scale where inhibition reaches its midpoint.
